Results reported in patent US9234000B2, “Benzylamine derivatives as inhibitors of plasma kallikrein” (KalVista Pharmaceuticals Limited, priority 2011, dated 2016).
Read-outs that look alike come from different tables or passages of the source.

Legend:
Human plasma kallikrein = Human plasma kallikrein (Homo sapiens (Human), UniProt P03952); experiment: Determination of the IC50 for plasma kallikrein; format: biochemical; details: 37° C., read-out: IC50 (human PKal)
Experimental: Determination of the IC50 for Plasma Kallikrein
(§1) Plasma kallikrein inhibitory activity in vitro was determined using standard published methods (see e.g. Johansen et al., Int. J. Tiss. Reac. 1986, 8, 185; Shori et al., Biochem. Pharmacol., 1992, 43, 1209; Stiirzebecher et al., Biol. Chem. Hoppe-Seyler, 1992, 373, 1025). Human plasma kallikrein (Protogen) was incubated at 37° C. with the fluorogenic substrate H-DPro-Phe-Arg-AFC and various concentrations of the test compound. Residual enzyme activity (initial rate of reaction) was determined by measuring the change in optical absorbance at 410 nm and the IC50 value for the test compound was determined.

Human KLK1 = Human KLK1 (Homo sapiens (Human), UniProt P06870); experiment: Determination of the IC50 for KLK1; format: biochemical; details: Human KLK1, 37° C., substrate H-DVal-Leu-Arg-AFC
Chain of Human KLK1 (P06870 25-262): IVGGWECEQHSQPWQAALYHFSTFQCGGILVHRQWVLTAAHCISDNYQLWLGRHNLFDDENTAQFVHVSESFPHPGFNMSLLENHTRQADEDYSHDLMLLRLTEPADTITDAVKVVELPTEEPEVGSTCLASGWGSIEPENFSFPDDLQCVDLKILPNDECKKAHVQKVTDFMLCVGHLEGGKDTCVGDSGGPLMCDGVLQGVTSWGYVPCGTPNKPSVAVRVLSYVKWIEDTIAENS
Experimental: Determination of the IC50 for KLK1
as §1, with “KLK1” for “Plasma kallikrein”, “Stürzebecher” for “Stiirzebecher”, “KLK1 (Callbiochem)” for “plasma kallikrein (Protogen)”, “H-DVal-Leu-Arg-AFC” for “H-DPro-Phe-Arg-AFC”

[1] = fluorogenic substrate H-DPro-Phe-Arg-AFC

Chain of Human plasma kallikrein (P03952 391-638): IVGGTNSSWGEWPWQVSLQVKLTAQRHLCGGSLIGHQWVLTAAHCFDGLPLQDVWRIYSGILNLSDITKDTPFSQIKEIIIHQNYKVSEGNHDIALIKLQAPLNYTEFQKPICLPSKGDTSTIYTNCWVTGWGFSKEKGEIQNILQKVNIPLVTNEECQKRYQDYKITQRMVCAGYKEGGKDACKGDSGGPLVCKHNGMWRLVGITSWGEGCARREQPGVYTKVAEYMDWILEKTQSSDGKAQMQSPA
Chain of Human plasma kallikrein (P03952 20-390 partner): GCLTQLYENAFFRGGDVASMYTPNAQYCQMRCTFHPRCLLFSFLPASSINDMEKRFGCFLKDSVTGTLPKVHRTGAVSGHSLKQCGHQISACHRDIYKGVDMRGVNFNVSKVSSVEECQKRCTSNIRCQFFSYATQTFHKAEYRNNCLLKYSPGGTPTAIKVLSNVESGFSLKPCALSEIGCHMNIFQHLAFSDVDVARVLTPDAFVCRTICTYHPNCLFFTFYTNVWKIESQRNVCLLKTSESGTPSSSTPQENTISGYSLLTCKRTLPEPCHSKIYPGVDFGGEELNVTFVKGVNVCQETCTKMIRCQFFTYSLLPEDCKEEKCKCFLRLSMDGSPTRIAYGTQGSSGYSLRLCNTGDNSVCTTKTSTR

SMILES	IC50 (Human plasma kallikrein; substrate H-DPro-Phe-Arg-AFC)	IC50 (Human KLK1; Table 13)	IC50 (Human plasma kallikrein; [1])	IC50 (Human KLK1; Table 12)
CCOc1ccc(C[C@@H](NC(=O)c2ccccc2)C(=O)N[C@@H](Cc2ccc(C(F)(F)F)cc2)C(=O)NCc2ccc(CN)cc2)cc1 [Example 148, N-[(R)-1-[(S)-1-(4-Aminomethyl-benzylcarbamoyl)-2-(4-trifluoromethyl-phenyl)-ethylcarbamoyl]-2-(4-ethoxy-phenyl)-ethyl]-benzamide]	0.934 µM	> 10 µM	–	–
CN(CCO)[C@H](CC1CCCCC1)C(=O)N[C@@H](Cc1ccccc1)C(=O)NCc1ccc(CN)cc1 [Example 49, (R)-N-[(S)-1-(4-Aminomethyl-benzylcarbamoyl)-2-phenyl-ethyl]-3-cyclohexyl-2-[(2-hydroxy-ethyl)-methyl-amino]-propionamide]	–	–	2.2 µM	> 10 µM
CCOc1ccc(C[C@@H](NC(=O)CNS(=O)(=O)c2ccc(C)cc2)C(=O)N[C@@H](Cc2ccccc2)C(=O)NCc2ccc(CN)cc2)cc1 [Example 101, (S)-N-(4-Aminomethyl-benzyl)-2-{(R)-3-(4-ethoxy-phenyl)-2-[2-(toluene-4-sulfonylamino)-acetylamino]-propionylamino}-3-phenyl-propionamide]	1.11 µM	> 10 µM	–	–
NCc1ccc(CNC(=O)[C@H](Cc2ccccc2)NC(=O)[C@@H](Cc2ccccc2)NC(=O)c2ccccc2)cc1 [Example 139, N-{(R)-1-[(S)-1-(4-Aminomethyl-benzylcarbamoyl)-2-phenyl-ethylcarbamoyl]-2-phenyl-ethyl}-benzamide]	1.14 µM	> 10 µM	–	–
NCc1ccc(CNC(=O)[C@H](Cc2ccccc2)NC(=O)[C@@H](Cc2ccc(OCc3c(Cl)cccc3Cl)cc2)NC(=O)c2ccccc2)cc1 [Example 134, N-{(R)-1-[(S)-1-(4-Aminomethyl-benzylcarbamoyl)-2-phenyl-ethylcarbamoyl]-2-[4-(2,6-dichloro-benzyloxy)-phenyl]-ethyl}-benzamide]	10 µM	> 10 µM	–	–
CCOc1ccc(C[C@@H](NC(=O)c2ccncc2)C(=O)N[C@@H](Cc2ccc(F)c(F)c2)C(=O)NCc2ccc(CN)cc2)cc1 [Example 161, N-[(R)-1-[(S)-1-(4-Aminomethyl-benzylcarbamoyl)-2-(3,4-difluoro-phenyl)-ethylcarbamoyl]-2-(4-ethoxy-phenyl)-ethyl]-isonicotinamide]	0.049 µM	6.9 µM	–	–
CCOc1ccc(C[C@@H](NC(=O)c2ccnc(OC)c2)C(=O)N[C@@H](Cc2ccccc2)C(=O)NCc2ccc(CN)cc2)cc1 [Example 123, N-[(R)-1-[(S)-1-(4-Aminomethyl-benzylcarbamoyl)-2-phenyl-ethylcarbamoyl]-2-(4-ethoxy-phenyl)-ethyl]-2-methoxy-isonicotinamide]	0.214 µM	> 10 µM	–	–
CCCCCC(=O)N[C@H](Cc1ccc(OCC)cc1)C(=O)N[C@@H](Cc1ccccc1)C(=O)NCc1ccc(CN)cc1 [Example 76, Hexanoic acid [(R)-1-[(S)-1-(4-aminomethyl-benzylcarbamoyl)-2-phenyl-ethylcarbamoyl]-2-(4-ethoxy-phenyl)-ethyl]-amide]	0.452 µM	3.6 µM	–	–
CCOc1ccc(C[C@@H](NC(=O)CC)C(=O)N[C@@H](Cc2ccccc2)C(=O)NCc2ccc(CN)c(F)c2)cc1 [Example 7, (S)-N-(4-Aminomethyl-3-fluoro-benzyl)-2-[(R)-3-(4-ethoxy-phenyl)-2-propionylamino-propionylamino]-3-phenyl-propionamide]	–	–	0.074 µM	> 1 µM
C[C@@H](NC(=O)c1ccccc1)C(=O)N[C@@H](Cc1ccccc1)C(=O)NCc1ccc(CN)cc1 [Example 22, N-{(R)-1-[(S)-1-(4-Aminomethyl-benzylcarbamoyl)-2-phenyl-ethylcarbamoyl]-ethyl}-benzamide]	–	–	10 µM	9.6 µM
NCc1ccc(CNC(=O)[C@H](Cc2ccccc2)NC(=O)[C@@H](Cc2ccc(OCc3ccc(Cl)cc3)cc2)NC(=O)c2ccccc2)cc1 [Example 128, N-{(R)-1-[(S)-1-(4-Aminomethyl-benzylcarbamoyl)-2-phenyl-ethylcarbamoyl]-2-[4-(4-chloro-benzyloxy)-phenyl]-ethyl}-benzamide]	2.01 µM	> 10 µM	–	–
CCOc1ccc(C[C@@H](NC(=O)CCCc2ccccc2)C(=O)N[C@@H](Cc2ccccc2)C(=O)NCc2ccc(CN)cc2)cc1 [Example 87, N-[(R)-1-[(S)-1-(4-Aminomethyl-benzylcarbamoyl)-2-phenyl-ethylcarbamoyl]-2-(4-ethoxy-phenyl)-ethyl]-4-phenyl-butyramide]	0.755 µM	3.4 µM	–	–
CCOc1ccc(C[C@@H](NC(=O)CC)C(=O)N[C@@H](Cc2ccccc2)C(=O)NCc2ccc(CN)c(Cl)c2)cc1 [Example 23, (S)-N-(4-Aminomethyl-3-chloro-benzyl)-2-[(R)-3-(4-ethoxy-phenyl)-2-propionylamino-propionylamino]-3-phenyl-propionamide]	–	–	0.031 µM	5.6 µM
CCOc1ccc(C[C@@H](NC(=O)c2cccc(C(F)(F)F)c2)C(=O)N[C@@H](Cc2ccccc2)C(=O)NCc2ccc(CN)cc2)cc1 [Example 90, N-[(R)-1-[(S)-1-(4-Aminomethyl-benzylcarbamoyl)-2-phenyl-ethylcarbamoyl]-2-(4-ethoxy-phenyl)-ethyl]-3-trifluoromethyl-benzamide]	0.276 µM	> 10 µM	–	–
CCOc1ccc(C[C@@H](NC(=O)c2ccccn2)C(=O)N[C@@H](Cc2ccc(Cl)c(Cl)c2)C(=O)NCc2ccc(CN)cc2)cc1 [Example 165, Pyridine-2-carboxylic acid [(R)-1-[(S)-1-(4-aminomethyl-benzylcarbamoyl)-2-(3,4-dichloro-phenyl)-ethylcarbamoyl]-2-(4-ethoxy-phenyl)-ethyl]-amide]	0.07 µM	> 10 µM	–	–
CCOc1ccc(C[C@@H](NC(=O)NC(C)C)C(=O)N[C@@H](Cc2ccccc2)C(=O)NCc2ccc(CN)cc2)cc1 [Example 77, (R)-N-[(S)-1-(4-Aminomethyl-benzylcarbamoyl)-2-phenyl-ethyl]-3-(4-ethoxy-phenyl)-2-(3-isopropyl-ureido)-propionamide]	1.96 µM	> 10 µM	–	–
CCOc1ccc(C[C@@H](NC(=O)CC)C(=O)N[C@@H](Cc2ccc(Cl)c(Cl)c2)C(=O)NCc2ccc(CN)cc2)cc1 [Example 16, (S)-N-(4-Aminomethyl-benzyl)-3-(3,4-dichloro-phenyl)-2-[(R)-3-(4-ethoxy-phenyl)-2-propionylamino-propionylamino]-propionamide]	–	–	0.053 µM	4.9 µM
CCOc1ccc(C[C@@H](NC(=O)c2ccccc2)C(=O)N[C@@H](Cc2ccncc2)C(=O)NCc2ccc(CN)cc2)cc1 [Example 147, N-[(R)-1-[(S)-1-(4-Aminomethyl-benzylcarbamoyl)-2-pyridin-4-yl-ethylcarbamoyl]-2-(4-ethoxy-phenyl)-ethyl]-benzamide]	0.284 µM	> 10 µM	–	–
CCOc1ccc(C[C@@H](NC(=O)c2ccc(OC(F)(F)F)cc2)C(=O)N[C@@H](Cc2ccccc2)C(=O)NCc2ccc(CN)cc2)cc1 [Example 80, N-[(R)-1-[(S)-1-(4-Aminomethyl-benzylcarbamoyl)-2-phenyl-ethylcarbamoyl]-2-(4-ethoxy-phenyl)-ethyl]-4-trifluoromethoxy-benzamide]	0.398 µM	> 10 µM	–	–
